The test deals with weedy Glycine max. Kind of test: Greenhouse trials, post-emergence herbicidal efficacy of L-glufosinate, other herbicides and their combinations (observed vs Colby expected). Type of test: in vivo. As to conditions: for Control %: Table 1. How it is done:
Greenhouse trials were carried out to evaluate the efficacy of the combination of L-glufosinate and the other herbicides on weedy Glycine max. The soil used was sandy clay loam—Sand: 68.0%; Silt: 8.0%; Clay: 24.0%. All treatments were in 3 replications per treatment with a spray volume of […].
The expected efficacy of a combination of L-glufosinate and the other herbicides was calculated using the well-established Colby method. Any difference between the observed and “expected” efficacy could be attributed to synergy between the two compounds.
In the Colby method, the expected (or predicted) response of a combination of herbicides is calculated by taking the product of the observed response for each individual component of the combination when applied alone, divided by 100, and subtracting this value from the sum of the observed response for each component when applied alone. An unexpected enhancement in efficacy of the combination is then determined by comparing the observed response of the combination to the expected (or predicted) response as calculated from the observed response of each individual component alone. If the observed response of the combination is greater than the expected (or predicted) response, or stated conversely, if the difference between the observed and expected response is greater than zero, then the combination is said to be synergistic or unexpectedly effective (Colby, S. R., Weeds, 1967(15), p. 20-22). The Colby method requires only a single dose of each herbicide applied alone and the mixture of both doses. The formula used to calculate the expected efficacy (EE) which was compared with the observed efficacy (OE) to determine the efficacy of the present invention is explained hereinbelow:
The expected efficacy for a combination of two active ingredients is as follows:
The expected efficacy for a combination of three active ingredients is as follows:
[…] The target weed was weedy Glycine max, and the concentration of the herbicide and the results are recorded in the table 1 below:

[1] abbreviates: 14 DAA, dose a.i. g/h: L-glufosinate 150, oxyfluorfen 107.1, imazethapyr 75, carfentrazone 7.5.
Where [2] appears, read: 21 DAA, dose a.i. g/h: L-glufosinate 150, oxyfluorfen 107.1, imazethapyr 75, carfentrazone 7.5.
Where [3] appears, read: 28 DAA, dose a.i. g/h: L-glufosinate 150, oxyfluorfen 107.1, imazethapyr 75, carfentrazone 7.5.
Setting [4] is: 35 DAA, dose a.i. g/h: L-glufosinate 150, oxyfluorfen 107.1, imazethapyr 75, carfentrazone 7.5.

Turning to `CCSC(C)CC1CC(=O)C(/C(CC)=N/OC/C=C/Cl)=C(O)C1` (stereo not shown) [Clethodim, clethodim], the “% control” value was 0% (Table 6, 3 DAA, g ai/h: L-glufosinate 150, clethodim 45); 0% (Table 6, 7 DAA, g ai/h: L-glufosinate 150, clethodim 45); 0% (Table 6, 14 DAA, g ai/h: L-glufosinate 150, clethodim 45); 0% (Table 6, 21 DAA, g ai/h: L-glufosinate 150, clethodim 45); 0% (Table 6, 28 DAA, g ai/h: L-glufosinate 150, clethodim 45); 0% (Table 6, 35 DAA, g ai/h: L-glufosinate 150, clethodim 45).
For the compound `CC(Oc1ccc(Oc2ncc(C(F)(F)F)cc2Cl)cc1)C(=O)O` (stereo not shown) [Haloxyfop, haloxyfop], the “% control” value reads like this: (Table 7, 3 DAA, g ai/h: L-glufosinate 150, haloxyfop 50) 5%; (Table 7, 7 DAA, g ai/h: L-glufosinate 150, haloxyfop 50) 13.3%; (Table 7, 14 DAA, g ai/h: L-glufosinate 150, haloxyfop 50) 15%; (Table 7, 21 DAA, g ai/h: L-glufosinate 150, haloxyfop 50) 12.3%; (Table 7, 28 DAA, g ai/h: L-glufosinate 150, haloxyfop 50) 12.3%; (Table 7, 35 DAA, g ai/h: L-glufosinate 150, haloxyfop 50) 12.3%.
As for `C#CCN1C(=O)COc2cc(F)c(N3C(=O)C4=C(CCCC4)C3=O)cc21` [Flumioxazin, flumioxazin], the “% control” value stood at 7.7% (Table 3, 3 DAA, g ai/h: L-glufosinate 150, flumioxazin 30); 31.7% (Table 3, 7 DAA, g ai/h: L-glufosinate 150, flumioxazin 30); 40% (Table 3, 21 DAA, g ai/h: L-glufosinate 150, flumioxazin 30); 40% (Table 3, 28 DAA, g ai/h: L-glufosinate 150, flumioxazin 30); 30% (Table 3, 35 DAA, g ai/h: L-glufosinate 150, flumioxazin 30).
Turning to `O=C(O)COc1nc(Cl)c(Cl)cc1Cl` [Triclopyr, triclopyr], the “% control” value is 50% (Table 5, 7 DAA, g ai/h: L-glufosinate 150, triclopyr 288) and 79.3% (Table 5, 14 DAA, g ai/h: L-glufosinate 150, triclopyr 288).
As to `CCOc1cc(Oc2ccc(C(F)(F)F)cc2Cl)ccc1[N+](=O)[O-]` [Oxyfluorfen, oxyfluorfen], the Control % is, setting by setting: under setting [1], 46.7%; under setting [2], 45.0%; under setting [3], 43.3%; under setting [4], 35.0%.
As for `O=C(O)CNCP(=O)(O)O` [Glyphosate, glyphosate], the “% control” value is, setting by setting: (Table 2, 3 DAA, g ai/h: L-glufosinate 150, glyphosate 379) 0%; (Table 2, 7 DAA, g ai/h: L-glufosinate 150, glyphosate 379) 0%; (Table 2, 14 DAA, g ai/h: L-glufosinate 150, glyphosate 379) 0%; (Table 2, 21 DAA, g ai/h: L-glufosinate 150, glyphosate 379) 0%; (Table 2, 28 DAA, g ai/h: L-glufosinate 150, glyphosate 379) 0%; (Table 2, 35 DAA, g ai/h: L-glufosinate 150, glyphosate 379) 0%.
For `O=C(O)COc1ccc(Cl)cc1Cl` [2,4-D], the “% control” value is recorded as 41.7% (Table 4, 7 DAA, g ai/h: L-glufosinate 150, 2,4-D 204); 42.7% (Table 4, 14 DAA, g ai/h: L-glufosinate 150, 2,4-D 204); 50.7% (Table 4, 21 DAA, g ai/h: L-glufosinate 150, 2,4-D 204); 53.3% (Table 4, 28 DAA, g ai/h: L-glufosinate 150, 2,4-D 204); 48.3% (Table 4, 35 DAA, g ai/h: L-glufosinate 150, 2,4-D 204).
For the compound `CCc1cnc(C2=NC(C)(C(C)C)C(=O)N2)c(C(=O)O)c1` (stereo not shown) [Imazethapyr, imazethapyr], the Control % is, setting by setting: under setting [1], 10%; under setting [2], 20.0%; under setting [3], 20.0%; under setting [4], 15.0%.
Regarding `Cc1nn(-c2cc(CC(Cl)C(=O)O)c(Cl)cc2F)c(=O)n1C(F)F` (stereo not shown) [Carfentrazone, carfentrazone], the Control % under setting [1] was 50.3%; the Control % (14 DAA, dose a.i. g/h: carfentrazone 9.0, L-glufosinate 150) is 51.7%; the Control % under setting [2] was found to be 44.3%; the Control % (21 DAA, dose a.i. g/h: carfentrazone 9.0, L-glufosinate 150) is reported as 51.0%; the Control % under setting [3] is on record as 44.3%; the Control % (28 DAA, dose a.i. g/h: carfentrazone 9.0, L-glufosinate 150) is 51.0%. Besides, the Control % reads like this: under setting [4], 39.3%; (35 DAA, dose a.i. g/h: carfentrazone 9.0, L-glufosinate 150) 46.7%.
